The record followed here is a melting point compilation (Tetko et al.; mined from patent text by program, amines drawn as free bases though some values may be those of a salt).

The structures appear in SMILES notation.

`Cc1nc(CC(C)C)c(CN)c(-c2ccc(Cl)cc2)c1C(=O)OC(C)(C)C`: the melting point (commonly the temperature, or range, at which the solid turns liquid) lay within 81 to 83 °C.
As for `CN(C)c1ccc2nc(N)c(C#N)c(NCc3cccs3)c2c1`, the figure is 211 °C.
Then `O=C1NC(=O)c2c1c(-c1ccccc1Cl)cc1c2cc(C(=O)O)n1CCCBr`, with 294 to 295 °C; and `CCNC(=O)Nc1ccc(C(O)(C(F)(F)F)C(F)(F)F)cc1C(=O)OCC`, with 144 to 146 °C.
The molecule `Cn1cc(C(=O)O)c(=O)c2cc3cc(F)c(N4CCNC(c5ccccc5F)C4)cc3nc21` (racemic) gave a melting point of 264 °C.
As to `CC(C)[C@H](NC(=O)OCc1ccccn1)C(=O)N[C@@H](Cc1ccccc1)[C@@H](O)C[C@H](Cc1ccccc1)NC(=O)OCc1cncs1`, the melting point was 176 to 177 °C.
Then `CC(=O)OCC1OC(n2c(Cl)nc3c(Cl)cc(Cl)cc32)C(OC(C)=O)C1OC(C)=O` (centres undefined), with 165 to 167 °C; and `CC(=O)OC1OC(COC(=O)c2ccccc2)CC(OC(=O)c2ccccc2)C1OC(=O)c1ccccc1` (centres undefined), with 123 to 124 °C; and `O=c1cc(NCC2CCCO2)oc2c1ccc1ccccc12` (centres undefined), with 139 to 140 °C.
As for `COC1N=C(c2ccccc2Cl)c2cc(Cl)ccc2-c2cn(C)cc21` (centres undefined), the figure is 128 to 130 °C; as for `O=C(CCCCCCC(c1ccccc1)(c1ccccc1)c1ccccc1)NO`, 100 to 103 °C; as for `COC(=O)CCCON1C(=O)c2ccccc2C1=O`, 79 to 81 °C.
Then `CCOC(=O)C=CC(=O)c1ccc(Oc2ccc(Cl)c(Cl)c2)cc1`, with 115 to 117 °C; and `CN(SC(Cl)(Cl)Cl)C(=O)ON=C1SCC(=O)NC1(C)C`, with 189 to 190 °C; and `CN1CCC(O)(Cc2ccccc2F)CC1`, with 93 to 95 °C.
Take `CC(C)(CO)NC(=O)c1ccccc1-c1ccccc1`: the melting point was in the range of 38.5 to 40.5 °C.
With `Clc1ccc2c(c1)N=C(NCCc1cccnc1)c1ccccc1N2`, the melting point is 195 to 196 °C.
Then `N#CC(Cc1cccc2c1OCO2)C(=O)O` (centres undefined), with 118 °C; and `COc1ccc2cc(C(=O)O)sc(=O)c2c1`, with 291 to 292 °C; and `CCN1C(=O)CC(C)(C)c2ccc(C#N)cc21`, with 120 to 121 °C.
With `CCOC(=O)C(=CNc1ccc2c(c1)N1CCN=C1S2)C(=O)OCC`, the melting point is 140 °C.
`CCOC(=O)COc1ccc(-c2c(Cl)c(CN3C(=O)CCC3=O)nc3sc4c(c23)CCS(=O)(=O)C4)cc1`: the melting point was in the range of 215 to 216 °C.
Then `CCOC(=O)c1cccc2c1CCc1cc(O)ccc1S2`, with 125 to 129 °C; and `O=c1cc(-c2ccoc2)c2ccc(CBr)cc2o1`, with 155 to 156 °C.
In turn, `COc1ccccc1C1=CC(=O)CCC1CC(=O)O` (centres undefined) showed a melting point of 183 to 184 °C.
Then `CC(C)(C)c1cc(CCc2ccccc2NC(=O)NC23CC4CC(CC(C4)C2)C3)cc(C(C)(C)C)c1O`, with 197 to 199 °C; and `Cc1cccc(NC(=O)NCC(=O)N(CC(=O)OC(C)(C)C)c2cccc(Cl)c2Cl)c1`, with 135 °C.
Then `COC(=O)C1(C(F)(F)CCCCCOc2ccc(Cl)cc2)CO1` (centres undefined), with 54 to 55 °C; and `CN(Cc1ccc2c(Br)c(O)ccc2c1)C(=O)c1oc2ccccc2c1CCc1ccccc1`, with 108 to 110 °C.
The molecule `Cc1cc(Cl)cc(C(=O)Nc2ccn(C)n2)n1` displayed a melting point of 204 °C.
As for `NC(=O)C1(CC23CC4CC(CC(C4)C2)C3)C=C(O)C=CC1Cl` (centres undefined), the figure is 263 to 264 °C.
Then `NC(=O)C(=O)Nc1nc(-c2oncc2-c2c(F)cccc2Cl)cs1`, with 235 to 237 °C; and `CCCCCCCCCCCCOC(=O)NS(=O)(=O)Nc1c(OC)cc(OC)cc1OC`, with 133 to 136 °C.
Then `COCCCn1cc(Br)c2c3c(c(-c4ccccc4Cl)cc21)C(=O)NC3=O`, with 149 to 151 °C; and `O=c1c(-c2ccccc2)cc(C2=NCCO2)c2n1CCc1ccsc1-2`, with 211 to 212 °C.
In turn, `CC(C)Oc1cc(CCCOc2c(CC(=O)O)ccc3ccccc23)n(Cc2ccc(Cl)cc2Cl)n1` came in with a melting point of 96 to 98 °C.
In turn, `Cc1cc(C)cc(OC(=O)C(Cl)c2ccccc2)c1` (centres undefined) came in with a melting point of 79 °C.
Then `Cc1cnc(CO)c(Cl)c1N1CCOCC1`, with 54 to 55 °C.
Molecule `CCCc1cc(O)nc(-c2cccc(Oc3ccccc3Cl)n2)n1` registered a melting point of 95.1 °C.
The molecule `COC(=O)Cc1c(O)nc(C)nc1O` showed a melting point above 200 °C.
On to `Oc1cccc2c1C(n1ccnc1)=CCC2`, for which the melting point was found to be 186 °C.
In turn, `COc1cc(NC(=O)CN2CCOCC2)c(Cl)cc1Cn1nc(-c2ccc(C(F)(F)F)cc2)oc1=O` returned a melting point of 178 to 179 °C.
As for `Cc1ccc(F)c(-n2cnc(-c3cnc4[nH]cc(C(=O)N[C@@H](C)C(C)(C)C)c4n3)c2)c1`, the melting point lay in the range of 331 to 332 °C.
Then `COC(=O)c1ccc(CC(C=O)c2cc(C(=O)OC)ccc2[N+](=O)[O-])c(OC)c1` (centres undefined), with 117 to 120 °C; and `O=C1NN=C(CCc2ccccc2)c2c[nH]c3cccc1c23`, with 182 to 184 °C.
As for `Nc1ccc(Oc2ccccc2OCc2ccccc2)cc1`, the melting point is 111 to 112 °C.
Regarding `CCOC(=O)c1c(-c2ccc(F)cc2)c2ccccc2n1C`, the melting point lay within 61 to 62 °C.
Then `COc1cc(-c2cn3cccnc3n2)ccc1O`, with 230 to 233 °C; and `CN1CCN(CC2(O)CC=Cc3ncccc32)CC1` (centres undefined), with 126 to 127 °C.
As for `COc1ccc2c(c1)C(=O)[C@@H](O)[C@](C#Cc1ccccc1)(c1ccccc1)O2` (relative stereo), the figure is 135 to 138 °C.
Then `O=C(Nc1ccc2[nH]ncc2c1)O[C@@H](c1cccc(C(F)(F)F)c1)[C@@H]1CCCCN1`, with 190 °C; and `CCCCNS(=O)(=O)c1ccc(N2CCC3(CC2)OCCO3)cc1`, with 122 to 124 °C; and `CSc1c(C=NO)c(=O)n(C)c(=O)n1C`, with 165 °C.
Take `O=C1C(=Cc2ccco2)CCc2cc(OCCc3c[nH]cn3)ccc21`: the melting point was 57 to 60 °C.
With `COc1ccc(Cl)cc1C(=O)NCCc1ccc(C=CC(=O)O)cc1`, the melting point was 197 to 198 °C.
The molecule `CC(C)c1cccc(C(C)C)c1NC(=O)CN1CCN(CCCSc2nc3ncccc3o2)CC1` returned a melting point of 125 to 127 °C.
Then `N#Cc1c(-c2cccc(N)c2)cc(-c2ccccc2O)nc1NC(=O)C1CCCCC1`, with 236 to 238 °C.
For the molecule `c1ccc(CCCNc2ccc(-c3cc(-c4ccc(NCCCc5ccccc5)cc4)cc(-c4ccc(NCCCc5ccccc5)cc4)c3)cc2)cc1`, the melting point was found to be 105 °C.
The molecule `Cc1ccc(C2CCN(C(=O)CCC(=O)c3ccc4c(c3)CCN(C(=O)C(F)(F)F)CC4)CC2)cc1` had a melting point of 132 to 134 °C.
The molecule `CN1Cc2ccc3c(c2C1)NC(=O)C3=NO` returned a melting point of 242 to 244 °C.
For `CNC(=O)N(C)c1nnc(C(C)(C)CCl)s1`, the melting point was in the range of 159 to 161 °C.
As for `CC(C)(C)OC(=O)CN(C(=O)CNC(=O)c1ccc2ccccc2n1)c1ccccc1`, the figure is 114 °C; as for `O=C1CCCCC(c2ccccc2)N1` (centres undefined), 135 to 137 °C; as for `Cc1cc(O)ccc1C(=O)O`, 160 to 161 °C.
Turning to `CC(C)(C)OC(=O)c1ncn2c1[C@@H]1CCCN1C(=O)c1c(Cl)cccc1-2`, the melting point was 216 to 217 °C.
Then `Nc1nc2ccccc2c2c1nc(C1CCOC1)n2CCOc1ccccc1` (centres undefined), with 236 °C.
As for `O=C1c2ccccc2-c2ccc(F)cc21`, the figure is 113 to 115 °C; as for `CCC1c2cccn2-c2ccc(F)cc2N1S(=O)(=O)c1ccc(OC)c(Cl)c1` (centres undefined), 152 to 154 °C.
As for `CCC(CC)N(O)C(=O)Nc1ccccc1Oc1ccccc1`, the figure is 141 to 142 °C.
The molecule `CC(C)(Oc1ccc(CC(=O)Nc2ccccc2)cc1)C(=O)O` registered a melting point of 198 °C.
For the molecule `CC(C)OC(=O)Cn1c(=O)n(C)c(=O)n(-c2cc(N3C(=O)c4cccc(F)c4C3=O)c(F)cc2Cl)c1=O`, the melting point is 119 to 125 °C.
As for `Cn1ccc2ccc(CO)cc21`, the figure is 47 to 49 °C.
`COc1cc(N)c(Cl)cc1C(=O)NC1CN(C)N(C)C1`: the melting point fell in the range of 169 to 171 °C.
Then `C=CCc1cccc(CC(NC(C)=O)C(=O)OCc2ccccc2)c1` (centres undefined), with 55 to 56.5 °C.
As for `OC1CSC(Oc2cc(-c3ccc(F)nc3)ccc2Cl)C(O)C1O` (centres undefined), the figure is 185 °C; as for `CC(C)[C@H](NC(=O)N1CCOCC1)C(=O)N[C@@H](Cc1ccccc1)C[C@H](O)[C@H](Cc1ccccc1)NC(=O)[C@@H](NC(=O)N1CCOCC1)C(C)C`, 198 to 201 °C; as for `CC(C)(C)OC(=O)N1CCN(C2=Nc3ccccc3Sc3ccccc32)CC1`, 127 to 130 °C.
`Fc1cccc2c(NCCc3ccc(Oc4ccc(C(F)(F)F)cn4)cc3)ncnc12` had a melting point of 152 °C.
Then `O=[N+]([O-])c1ccc(-c2c[nH]c(Cl)n2)cc1`, with 136 to 138 °C; and `O=C(c1cc(=O)c2cc(O)ccc2[nH]1)N1CCC(Cc2ccccc2)CC1`, with 127 °C; and `Cc1cc(-c2c(C)nc3ccc(N4CCNC(C)(C)C4)nn23)ccn1`, with 110 to 112 °C.
Then `COC(=O)C#CC(=O)c1ccc(OC)cc1`, with 68 °C; and `CCO[C@@H](Cc1ccc2oc(Cc3nc(-c4ccccc4)oc3C)cc2c1)C(=O)O`, with 129 °C; and `CC(C)(C)OC(=O)NCc1ccc2cc(O)ccc2c1`, with 173 to 174 °C.
As for `Cn1nc2c(-c3ccc(Cl)cc3Cl)cccc2c1C=CC#N`, the figure is 258 to 259 °C; as for `O=C1Cc2cccc(Oc3ccccc3)c2N1`, 135 to 146 °C; as for `COC(=O)c1cc2cc(OCCn3ccnc3)ccc2s1`, 127 to 129 °C.
On to `CN1CCCC1=NC(=O)Nc1ccc(Cl)c(C(F)(F)F)c1`, for which the melting point is 175 °C.
Then `O=S(=O)(c1c(F)c(F)c(F)c(F)c1F)c1c(F)c(F)c(F)c(F)c1F`, with 129 °C.
